Reference: patent publication US7652046B2, “Substituted thienopyrrole carboxylic acid amides, pyrrolothiazole carboxylic acid amides, and related analogs as inhibitors of casein kinase I” (Aventis Pharmaceuticals Inc., priority 2004, dated 2010)

Assays:
Casein Kinase Iε = target: T1, Casein Kinase Iε (Homo sapiens, UniProt P49674); experiment: Casein Kinase Epsilon 33P-ATP Filter Plate Assay; format: biochemical
T1 construct: made in house
From the text: Casein Kinase Epsilon ^33P-ATP Filter Plate Assay for Screening CKIε Inhibitors
Purpose: This assay measures the ability of compounds to inhibit the phosphorylation of the substrate casein by the enzyme casein kinase 1ε using an in vitro ^33P-ATP filtration assay. […] Materials:
Equipment: • Beckman Biomek 2000 Liquid Handling Robot • Beckman Multimek 96 Automated 96 Channel Pipettor • Millipore Vacuum Manifold Basic Kit # MAVM0960R • Titertek Multidrop Liquid Dispenser • Packard TopCount NXT Liquid Scintillation Counter
Enzyme: • Casein Kinase 1ε final concentration 0.58 mg/ml obtained from fermentation and purification processes as are well known to one skilled in the art. The above are stored as 100 μL aliquots at minus 80° C.
Compounds: • Supply compounds for testing as frozen 10 mM compound stock dissolved in 100% DMSO. Assay Conditions:
Final total assay volume per well is equal to 50 μL that one prepares as follows: • 5 μL of diluted compound stock (10, 1, 0.1, 0.01 or 0.001 μM), • 5 μL of dephosphorylated casein final concentration 0.2 μg/μL, • 20 μL of CK1ε final concentration 3 ng/μL, and • 20 μL of γ-^33P-ATP final concentration 0.02 μCi/μL mixed with cold ATP (10 μM final). Methodology: • 1. Prepare 500 mL of fresh assay buffer: 50 mM Tris pH 7.5, 10 mM MgCl2, 2 mM DTT and 1 mM EGTA • 2. Obtain compounds to be evaluated as 10 μL of 10 mM stock dissolved in 100% DMSO. Use a Biomek 2000 liquid handling robot, make serial dilutions to yield 10, 1, 0.1, 0.01 and 0.001 μM final compound dilutions added as 5 μL additions to Falcon U bottom plates. […] A routine screening assay will consist of 32 compounds, which equals 4 assay plates. • 3. Assay plate maps are set up according to the following pattern CK1ePlateMap.xls
• 4. Add 5 μL of compound as indicated, then add 5 μL of dephosphorylated casein (dissolved in distilled H20)(0.2 μg/μL) and 20 μL CK1ε (3 ng/μL) to the appropriate wells. • 5. Finally add 20 μL γ-^33P-ATP (0.02 μCi/μL)/10 μM cold ATP (equals approximately 2×10^6 CPM per well). • 6. Vortes the Falcon U-Bottom assay plate containing the above 50 μL reaction volume and then incubate at room temperature for 2 hours. • 7. At the end of 2 hours, stop the reaction by the addition of 65 μL of ice cold 2 mM cold ATP (made up in assay buffer) to the assay plates using a Beckman Multimek. • 8. At the same time add 25 μL 100% ice cold TCA made up in distilled H20 to a matching number of Millipore MAPH filter plates. • 9. Using a handheld 8-channel pipettor, transfer 100 μL of the reaction mixture from the Falcon U-Bottom Plate to the Millipore MAPH filter plates presoaked with TCA. • 10. Mix the Millipore MAPH filter plates gently and allow to sit at room temperature for at least 30 minutes to precipitate the proteins. • 11. After 30 minutes, place the filter plates on a Millipore vacuum manifold and filter at no more than 8 mm Hg as the MAPH filters tend to “air lock” at higher vacuum settings. • 12. Wash the filter plates sequentially and filter with 2×150 μL 20% TCA, 2×150 μL 10% TCA and 2×150 μL 5% TCA (total of 6 washes per plate/900 μL per well). • 13. Allow the plates to dry overnight at room temperature. The next day add 40 μL Packard Microscint-20 Scintillation Fluid per well using a Titertek Multidrop dispenser; seal the plates and count for 2 minutes/well in a Packard Topcount NXT Scintillation Counter (to provide CPM values/well). Calculation: • 1. Import Counts Per Minute (CPM) data into a proprietary data calculation and archiving database (Activity Base by IDBS version 5.0). • 2. Column 1 for each plate reflects total phosphorylation activity of the enzyme in the absence of any inhibiting compound and thus represents 100%. Column 12 reflects any nonspecific phosphorylation/retained radioactivity activity in the absence of inhibiting compound and enzyme.

[1] = test system: Mper1-luc Rat-1 fibroblasts (P2C4); experiment: Cellular Circadian Assay (Mper1-luc reporter period lengthening); format: cell-based; conditions: effective concentration that induces a 1 hour lengthening of circadian period
From the text: The assay consists of Rat-1 fibroblasts stably expressing a Mper1-luc construct, thus enabling the determination of the rhythmic activation of the Mper1 promoter in living cells by repeatedly estimating luciferase activity by monitoring light-output over several days. The repeated measure format of the assay permits accurate and reproducible assessment of the concentration-dependent effects of CKIε inhibitors on circadian rhythm and provides the nexus for relating CKIε inhibition to circadian period alteration.
Cellular Circadian Assay Experimental Procedures
Stable transfection: Co-transfect Rat-1 fibroblast cultures at 30-50% confluence with vectors containing the Zeocin resistance selectable marker for stable transfection and an mPer-1 promoter-driven luciferase reporter gene. After 24-48 hours, split the cultures onto 96 well plates and maintain in growth media supplemented with 50-100 μg/mL Zeocin (Invitrogen #45-0430) for 10-14 days. Assess Zeocin-resistant stable transfectants for reporter expression by supplementing growth media with 100 μM luciferin (Promega #E1603) and assaying luciferase activity on a TopCount scintillation counter (Packard Model #C384V00). […] Select Mper1-luc Rat-1 fibroblasts clone P2C4 for compound testing. […] After synchronization, rinse cultures with 100 μL EMEM (Cellgro #10-010-CV) for 10 minutes at room temperature. […] Add compounds to be tested for circadian effects to CO2-independent media in 0.3% DMSO (final concentration). […] Estimate in vivo luciferase activity by measuring relative light output on a TopCount scintillation counter (Packard Model #C384V00). Transfer plates from incubator to reader using an ORCA robotic arm (Beckman Instruments) and SAMI-NT automated scheduling software (Version 3.3; SAGIAN/Beckman Instruments). Data Analysis: Use Microsoft Excel and XLfit (Version 2.0.9; IDBS) to import, manipulate and graph data. Perform period analysis either by determining the interval between relative light output minima over several days or by Fourier Transform. […] Analyze the data by fitting a hyperbolic curve to the data expressed as period change (y-axis) versus the concentration of test compound (x-axis) in XLfit and interpolate the EC[…]t+1h from this curve.

T1 sequence (P49674 whole entry): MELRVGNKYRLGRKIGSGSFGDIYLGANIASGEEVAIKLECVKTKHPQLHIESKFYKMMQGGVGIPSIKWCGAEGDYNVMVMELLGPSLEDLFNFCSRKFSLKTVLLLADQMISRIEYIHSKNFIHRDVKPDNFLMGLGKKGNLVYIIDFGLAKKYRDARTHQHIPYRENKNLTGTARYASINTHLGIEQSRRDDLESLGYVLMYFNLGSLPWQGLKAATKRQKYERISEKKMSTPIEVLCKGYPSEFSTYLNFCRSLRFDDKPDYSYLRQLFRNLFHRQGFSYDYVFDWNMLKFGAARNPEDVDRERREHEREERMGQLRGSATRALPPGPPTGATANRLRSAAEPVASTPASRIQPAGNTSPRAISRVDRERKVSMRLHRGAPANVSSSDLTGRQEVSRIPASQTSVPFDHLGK

Row | Structure (SMILES) | Ki (Casein Kinase Iε) | Cell Assay ECΔτ1h [1]
1 | NC(=O)c1[nH]c2sccc2c1Sc1ccccc1 [IIb, 4-(phenylsulfanyl)-6H-thieno[2,3-b]pyrrole-5-carboxylic acid amide] | 0.811 µM | 0.874 µM
2 | NC(=O)c1[nH]c2sccc2c1Sc1cccc(Br)c1 [IIg, 4-(3-Bromophenyl-sulfanyl)-6H-thieno[2,3-b]pyrrole-5-carboxylic acid amide] | 0.0306 µM | 2.492 µM
3 | Cc1nc2c(Sc3cccc(F)c3)c(C(N)=O)[nH]c2s1 [IIn, 6-(3-Fluorophenyl-sulfanyl)-2-methyl-4H-pyrrolo[3,2-d]thiazole-5-carboxylic acid amide] | 0.0159 µM | 0.998 µM
4 | Cc1nc2c(Sc3cccc(Cl)c3)c(C(N)=O)[nH]c2s1 [IIo, 6-(3-Chlorophenyl-sulfanyl)-2-methyl-4H-pyrrolo[3,2-d]thiazole-5-carboxylic acid amide] | 0.0096 µM | 0.662 µM
5 | NC(=O)c1[nH]c2scnc2c1Sc1ccccc1 [IIs, 6-Phenylsulfanyl-4H-pyrrolo[3,2-d]thiazole-5-carboxylic acid amide] | 0.047 µM | 1.155 µM
6 | COc1cccc(Sc2c(C(N)=O)[nH]c3scnc23)c1 [IIt, 6-(3-Methoxyphenyl-sulfanyl)-4H-pyrrolo[3,2-d]thiazole-5-carboxylic acid amide] | 0.022 µM | 1.974 µM
7 | NC(=O)c1[nH]c2ccsc2c1Sc1ccccc1N [Id, 6-(2-Aminophenyl-sulfanyl)-4H-thieno[3,2-b]pyrrole-5-carboxylic acid amide] | 0.11 µM | >30 µM
